Test results from patent publication US11878970B2, “Allosteric chromenone inhibitors of phosphoinositide 3-kinase (PI3K) for the treatment of disease” (Petra Pharma Corporation, priority 2021, dated 2024).

Tests used:
[1] = target: T1, PI3K-α (PIK3CA) wild-type (WT), p110α/p85α complex (Homo sapiens, UniProt P42336); assay: PI3K-alpha kinase (PIK3CA) biochemical activity, ADP-Glo, wild-type
T1 construct: Recombinant, catalytically active human full length PIK3KA Wild-type and H1047R mutant; 6×His (N); purchased EMD Millipore Sigma 14-602M
In short: (§1)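 ADP formation measured by ADP-Glo luminescence after reaction at 27 °C to about 10% ATP turnover, using 20 uM ATP, 50 uM PIP2diC8 or soy PI lipid, HEPES pH 7.4 with MgCl2. Enzyme (1-5 nM WT or H1047R p110α/p85α) and compound preincubated 1 h first; 10-point 1:3 curves fitted four-parameter for IC50.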

[2] = target: T2, PI3K-α (PIK3CA) H1047R mutant, p110α/p85α complex (Homo sapiens, UniProt P42336, H1047R); assay: PI3K-alpha kinase (PIK3CA) biochemical activity, ADP-Glo, H1047R mutant
T2 construct: Recombinant, catalytically active human full length PIK3KA Wild-type and H1047R mutant; 6×His (N); purchased EMD Millipore Sigma 14-792M
T2 sequence (P42336 whole entry H1047R): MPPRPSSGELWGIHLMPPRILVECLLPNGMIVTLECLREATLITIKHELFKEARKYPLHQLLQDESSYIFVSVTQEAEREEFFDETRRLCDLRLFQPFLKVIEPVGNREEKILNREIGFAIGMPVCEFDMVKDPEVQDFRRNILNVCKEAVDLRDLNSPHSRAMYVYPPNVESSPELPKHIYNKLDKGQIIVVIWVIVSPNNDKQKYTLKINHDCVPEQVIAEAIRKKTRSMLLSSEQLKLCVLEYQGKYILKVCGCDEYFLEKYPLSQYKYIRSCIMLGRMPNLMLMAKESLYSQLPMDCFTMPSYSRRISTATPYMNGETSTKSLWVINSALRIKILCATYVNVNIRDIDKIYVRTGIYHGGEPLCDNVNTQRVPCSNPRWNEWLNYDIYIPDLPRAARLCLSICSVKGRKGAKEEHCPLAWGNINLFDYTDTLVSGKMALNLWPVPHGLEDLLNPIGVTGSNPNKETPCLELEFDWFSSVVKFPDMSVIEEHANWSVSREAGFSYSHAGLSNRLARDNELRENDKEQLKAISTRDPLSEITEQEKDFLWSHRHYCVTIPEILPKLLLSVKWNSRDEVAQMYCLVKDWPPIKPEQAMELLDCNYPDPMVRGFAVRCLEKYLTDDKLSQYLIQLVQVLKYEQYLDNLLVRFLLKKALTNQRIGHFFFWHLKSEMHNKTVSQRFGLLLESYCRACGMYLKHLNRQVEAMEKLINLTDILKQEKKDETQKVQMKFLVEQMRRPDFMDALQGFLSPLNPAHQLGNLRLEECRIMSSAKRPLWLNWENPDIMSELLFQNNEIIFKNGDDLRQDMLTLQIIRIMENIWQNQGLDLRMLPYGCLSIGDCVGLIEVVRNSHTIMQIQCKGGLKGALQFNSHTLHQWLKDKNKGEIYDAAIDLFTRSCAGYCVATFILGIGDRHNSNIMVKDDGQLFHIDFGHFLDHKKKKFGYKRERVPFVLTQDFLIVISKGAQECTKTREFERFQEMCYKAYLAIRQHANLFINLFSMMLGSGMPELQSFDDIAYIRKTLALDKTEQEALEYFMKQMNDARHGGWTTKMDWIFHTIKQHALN
T2 sequence (P27986 whole entry partner): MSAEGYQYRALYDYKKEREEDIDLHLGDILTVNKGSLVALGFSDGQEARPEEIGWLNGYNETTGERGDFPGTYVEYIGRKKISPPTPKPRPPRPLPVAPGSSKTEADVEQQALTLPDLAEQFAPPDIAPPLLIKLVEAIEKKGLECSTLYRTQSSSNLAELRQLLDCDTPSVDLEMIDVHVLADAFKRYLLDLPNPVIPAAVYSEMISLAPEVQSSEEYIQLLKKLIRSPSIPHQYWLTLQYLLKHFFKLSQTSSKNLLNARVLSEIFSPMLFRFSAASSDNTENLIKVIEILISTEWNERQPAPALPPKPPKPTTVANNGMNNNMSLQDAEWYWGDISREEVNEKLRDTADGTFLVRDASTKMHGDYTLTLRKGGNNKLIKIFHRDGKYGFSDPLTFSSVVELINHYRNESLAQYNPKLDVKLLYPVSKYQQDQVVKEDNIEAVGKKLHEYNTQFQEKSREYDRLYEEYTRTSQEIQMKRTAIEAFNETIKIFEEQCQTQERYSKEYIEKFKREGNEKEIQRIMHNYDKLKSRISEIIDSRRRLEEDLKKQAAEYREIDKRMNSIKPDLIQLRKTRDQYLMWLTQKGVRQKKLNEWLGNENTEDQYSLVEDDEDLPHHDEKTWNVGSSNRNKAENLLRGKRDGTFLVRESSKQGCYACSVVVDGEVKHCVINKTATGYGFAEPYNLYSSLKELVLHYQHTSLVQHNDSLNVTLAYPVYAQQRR
In short: as §1

[3] = PIP2diC8 lipid substrate (footnote 1)

Row | IC50 ([1]; Soy PI lipid substrate) [nM] | IC50 ([2]; Soy PI lipid substrate) [nM] | IC50 [1, 3] [nM] | IC50 [2, 3] [nM] | Compound
1 | 5000 to 10000 | < 500 | – | – | Cc1cc(C(C)Nc2ccccc2C(=O)O)c2oc(-c3ccc4c(c3)ncn4C)cc(=O)c2c1 (single isomer, unassigned) [Example 166, 2-[1-[6-Methyl-2-(1-methylbenzimidazol-5-yl)-4-oxo-chromen-8-yl]ethylamino]benzoic acid]
2 | 1000 to 5000 | < 500 | – | – | Cc1nc2ccc(-c3cc(=O)c4cc(C(F)(F)F)cc(C(C)Nc5ccc(Cl)nc5C(=O)O)c4o3)cc2s1 (single isomer, unassigned) [Example 167, 6-Chloro-3-[1-[2-(2-methyl-1,3-benzothiazol-6-yl)-4-oxo-6-(trifluoromethyl)chromen-8-yl]ethylamino]pyridine-2-carboxylic acid]
3 | < 500 | < 500 | – | – | Cc1cc(C(C)Nc2cccc(F)c2C(=O)O)c2oc(-c3ccc4nn(C)cc4c3)cc(=O)c2c1 (single isomer, unassigned) [Example 172, 2-Fluoro-6-[1-[6-methyl-2-(2-methylindazol-5-yl)-4-oxo-chromen-8-yl]ethylamino]benzoic acid]
4 | 500 to 1000 | < 500 | – | – | Cc1cc(C(C)Nc2ccc(C)nc2C(=O)O)c2oc(-c3ccc4nn(C)cc4c3)c(C)c(=O)c2c1 (single isomer, unassigned) [Example 175, 3-[1-[3,6-Dimethyl-2-(2-methylindazol-5-yl)-4-oxo-chromen-8-yl]ethylamino]-6-methyl-pyridine-2-carboxylic acid]
5 | > 10000 | < 500 | – | – | Cc1cc(C(C)Nc2ccc(C)nc2C(=O)O)c2oc(-c3nn(C)c4ccccc34)cc(=O)c2c1 (single isomer, unassigned) [Example 176, 6-Methyl-3-[1-[6-methyl-2-(1-methylindazol-3-yl)-4-oxo-chromen-8-yl]ethylamino]pyridine-2-carboxylic acid]
6 | < 500 | < 500 | – | – | Cc1cc(C(C)Nc2ccc(Cl)nc2C(=O)O)c2oc(-c3nn(C)c4ccccc34)cc(=O)c2c1 (single isomer, unassigned) [Example 177, 6-Chloro-3-[1-[6-methyl-2-(1-methylindazol-3-yl)-4-oxo-chromen-8-yl]ethylamino]pyridine-2-carboxylic acid]
7 | 5000 to 10000 | 500 to 1000 | – | – | Cc1cc(C(C)Nc2ccc(Cl)nc2C(=O)O)c2oc(-c3ccc4nc(C)cn4c3)cc(=O)c2c1 (single isomer, unassigned) [Example 179, 6-Chloro-3-[1-[6-methyl-2-(2-methylimidazo[1,2-a]pyridin-6-yl)-4-oxo-chromen-8-yl]ethylamino]pyridine-2-carboxylic acid]
8 | 1000 to 5000 | < 500 | – | – | Cc1cc(C(C)Nc2ccc(C)nc2C(=O)O)c2oc(-c3ccc4nn(C)cc4c3)cc(=O)c2c1 (single isomer, unassigned) [Example 180, 6-Methyl-3-[1-[6-methyl-2-(2-methylindazol-5-yl)-4-oxo-chromen-8-yl]ethylamino]pyridine-2-carboxylic acid]
9 | < 500 | < 500 | – | – | Cc1cc(C(C)Nc2ccc(Cl)nc2C(=O)O)c2oc(-c3ccc4nn(C)cc4c3)c(C)c(=O)c2c1 (single isomer, unassigned) [Example 181, 6-Chloro-3-[1-[3,6-dimethyl-2-(2-methylindazol-5-yl)-4-oxo-chromen-8-yl]ethylamino]pyridine-2-carboxylic acid]
10 | 1000 to 5000 | < 500 | – | – | Cc1cc(C(C)Nc2ccc(Cl)c(F)c2C(=O)O)c2oc(-c3c(C)nc4ccccn34)cc(=O)c2c1 (single isomer, unassigned) [Example 182, 3-Chloro-2-fluoro-6-[1-[6-methyl-2-(2-methylimidazo[1,2-a]pyridin-3-yl)-4-oxo-chromen-8-yl]ethylamino]benzoic acid]
11 | 500 to 1000 | < 500 | – | – | Cc1cc(C(C)Nc2ccc(Cl)c(F)c2C(=O)O)c2oc(-c3ccc4nc(C)cn4c3)cc(=O)c2c1 (single isomer, unassigned) [Example 183, 3-chloro-2-fluoro-6-[1-[6-methyl-2-(2-methylimidazo[1,2-a]pyridin-6-yl)-4-oxo-chromen-8-yl]ethylamino]benzoic acid]
12 | 500 to 1000 | < 500 | – | – | Cc1cc(C(C)Nc2ccc(Cl)c(F)c2C(=O)O)c2oc(-c3ccc4nn(C)cc4c3)cc(=O)c2c1 (single isomer, unassigned) [Example 184, 3-Chloro-2-fluoro-6-[1-[6-methyl-2-(2-methylindazol-5-yl)-4-oxo-chromen-8-yl]ethylamino]benzoic acid]
13 | 1000 to 5000 | < 500 | – | – | Cc1cc(C(C)Nc2ccccc2C(=O)O)c2oc(-c3ccc4nc(C(F)(F)F)cn4c3)c(C)c(=O)c2c1 (single isomer, unassigned) [Example 186, 2-[1-[3,6-Dimethyl-4-oxo-2-[2-(trifluoromethyl)imidazo[1,2-a]pyridin-6-yl]chromen-8-yl]ethylamino]benzoic acid]
14 | 500 to 1000 | 500 to 1000 | – | – | CC(Nc1ccc(Cl)nc1C(=O)O)c1cc(C(F)(F)F)cc2c(=O)cc(-c3cc(Cl)c4nn(C)cc4c3)oc12 (single isomer, unassigned) [Example 194, 6-Chloro-3-[1-[2-(7-chloro-2-methyl-indazol-5-yl)-4-oxo-6-(trifluoromethyl)chromen-8-yl]ethylamino]pyridine-2-carboxylic acid]
15 | < 500 | < 500 | – | – | Cc1cc(C(C)Nc2ccc(Cl)nc2C(=O)O)c2oc(-c3ccc4nn(C)cc4c3)cc(=O)c2c1 (single isomer, unassigned) [Example 206, 6-Chloro-3-[1-[6-methyl-2-(2-methylindazol-5-yl)-4-oxo-chromen-8-yl]ethylamino]pyridine-2-carboxylic acid]
16 | < 500 | < 500 | – | – | Cc1cc(C(C)Nc2ccccc2C(=O)O)c2oc(-c3ccc4nn(C)cc4c3)c(C(F)(F)F)c(=O)c2c1 (single isomer, unassigned) [Example 208, 2-[1-[6-Methyl-2-(2-methylindazol-5-yl)-4-oxo-3-(trifluoromethyl)chromen-8-yl]ethylamino]benzoic acid]
17 | 1000 to 5000 | < 500 | – | – | Cc1cc(C(C)Nc2ccccc2C(=O)O)c2oc(-c3cnn4cccnc34)cc(=O)c2c1 (stereo not drawn) [Example 6, 2-[1-(6-Methyl-4-oxo-2-pyrazolo[1,5-a]pyrimidin-3-yl-chromen-8-yl)ethylamino]benzoic acid]
18 | – | – | 500 to 1000 | 500 to 1000 | Cc1cc(C(C)Nc2ccccc2C(=O)O)c2oc(-c3ccc4[nH]c(C(F)(F)F)cc4c3)cc(=O)c2c1 (stereo not drawn) [Example 11, 2-[1-[6-Methyl-4-oxo-2-[2-(trifluoromethyl)-1H-indol-5-yl]chromen-8-yl]ethylamino]benzoic acid]
19 | 5000 to 10000 | < 500 | – | – | Cc1cc(C(C)Nc2ccccc2C(=O)O)c2oc(-c3nn(C)c4ccccc34)cc(=O)c2c1 (stereo not drawn) [Example 12, 2-[1-[6-Methyl-2-(1-methylindazol-3-yl)-4-oxo-chromen-8-yl]ethylamino]benzoic acid]
20 | < 500 | < 500 | – | – | Cc1cc(C(C)Nc2ccccc2C(=O)O)c2oc(-c3ccc4nn(C)cc4c3)cc(=O)c2c1 (stereo not drawn) [Example 13, 2-[1-[6-Methyl-2-(2-methylindazol-5-yl)-4-oxo-chromen-8-yl]ethylamino]benzoic acid]
21 | 1000 to 5000 | < 500 | – | – | Cc1cc(C(C)Nc2ccccc2C(=O)O)c2oc(-c3ccc4nccn4n3)cc(=O)c2c1 (stereo not drawn) [Example 15, 2-[1-(2-Imidazo[1,2-b]pyridazin-6-yl-6-methyl-4-oxo-chromen-8-yl)ethylamino]benzoic acid]
22 | 1000 to 5000 | < 500 | – | – | Cc1cc(C(C)Nc2ccccc2C(=O)O)c2oc(-c3ccc4nc(C)cn4c3)cc(=O)c2c1 (stereo not drawn) [Example 16, 2-[1-[6-Methyl-2-(2-methylimidazo[1,2-a]pyridin-6-yl)-4-oxo-chromen-8-yl]ethylamino]benzoic acid]
23 | 1000 to 5000 | < 500 | – | – | Cc1cc(C(C)Nc2ccccc2C(=O)O)c2oc(-c3ccc4c(c3)CN(C)C4=O)cc(=O)c2c1 (stereo not drawn) [Example 30, 2-[1-[6-Methyl-2-(2-methyl-1-oxo-isoindolin-5-yl)-4-oxo-chromen-8-yl]ethylamino]benzoic acid]
24 | > 10000 | 1000 to 5000 | – | – | Cc1cc(C(C)Nc2ccc(F)c(F)c2C(=O)O)c2oc(-c3ccc4nc(C)cn4n3)cc(=O)c2c1 (stereo not drawn) [Example 94, 2,3-Difluoro-6-[1-[6-methyl-2-(2-methylimidazo[1,2-b]pyridazin-6-yl)-4-oxo-chromen-8-yl]ethylamino]benzoic acid]

Row | Compound | IC50 ([1]; Soy PI lipid substrate) [nM] | IC50 ([2]; Soy PI lipid substrate) [nM] | IC50 [1, 3] [nM] | IC50 [2, 3] [nM]
25 | Cc1cc(C(C)Nc2ccccc2C(=O)O)c2oc(-c3ccc4c(c3)c(C)nn4C)cc(=O)c2c1 (single isomer, unassigned) [Example 165, 2-[1-[2-(1,3-Dimethylindazol-5-yl)-6-methyl-4-oxo-chromen-8-yl]ethylamino]benzoic acid] | < 500 | < 500 | – | –
26 | Cc1cc(C(C)Nc2ccccc2C(=O)O)c2oc(-c3cnn4ccccc34)cc(=O)c2c1 (stereo not drawn) [Example 10, 2-[1-(6-Methyl-4-oxo-2-pyrazolo[1,5-a]pyridin-3-yl-chromen-8-yl)ethylamino]benzoic acid] | 1000 to 5000 | < 500 | – | –
27 | Cc1cc(C(C)Nc2ccccc2C(=O)O)c2oc(-c3ccc4cc[nH]c4n3)cc(=O)c2c1 (stereo not drawn) [Example 14, 2-[1-[6-Methyl-4-oxo-2-(1H-pyrrolo[2,3-b]pyridin-6-yl)chromen-8-yl]ethylamino]benzoic acid] | 1000 to 5000 | < 500 | – | –
